From patent publication US11345713B2, “Compounds as modulators of TLR2 signaling” (Neuropore Therapies, inc., priority 2018, dated 2022) come the findings set out here.

Where a name gives a salt, the structure may show the parent alone. Where only a bound is given, the exact number is not on record here.

In general, IC50 refers to the concentration needed to halve the response being measured. Low values mean higher potency, high ones lower potency.

In experiment [1] the target is T1, human TLR2 (Pam2CSK4, TLR2/6 agonist) in HEK-Blue hTLR2 cells (Homo sapiens, UniProt O60603).
T1 construct: host or cells: HEK-Blue hTLR2 (HEK-293)
T1 sequence (O60603 19-784 limits assumed): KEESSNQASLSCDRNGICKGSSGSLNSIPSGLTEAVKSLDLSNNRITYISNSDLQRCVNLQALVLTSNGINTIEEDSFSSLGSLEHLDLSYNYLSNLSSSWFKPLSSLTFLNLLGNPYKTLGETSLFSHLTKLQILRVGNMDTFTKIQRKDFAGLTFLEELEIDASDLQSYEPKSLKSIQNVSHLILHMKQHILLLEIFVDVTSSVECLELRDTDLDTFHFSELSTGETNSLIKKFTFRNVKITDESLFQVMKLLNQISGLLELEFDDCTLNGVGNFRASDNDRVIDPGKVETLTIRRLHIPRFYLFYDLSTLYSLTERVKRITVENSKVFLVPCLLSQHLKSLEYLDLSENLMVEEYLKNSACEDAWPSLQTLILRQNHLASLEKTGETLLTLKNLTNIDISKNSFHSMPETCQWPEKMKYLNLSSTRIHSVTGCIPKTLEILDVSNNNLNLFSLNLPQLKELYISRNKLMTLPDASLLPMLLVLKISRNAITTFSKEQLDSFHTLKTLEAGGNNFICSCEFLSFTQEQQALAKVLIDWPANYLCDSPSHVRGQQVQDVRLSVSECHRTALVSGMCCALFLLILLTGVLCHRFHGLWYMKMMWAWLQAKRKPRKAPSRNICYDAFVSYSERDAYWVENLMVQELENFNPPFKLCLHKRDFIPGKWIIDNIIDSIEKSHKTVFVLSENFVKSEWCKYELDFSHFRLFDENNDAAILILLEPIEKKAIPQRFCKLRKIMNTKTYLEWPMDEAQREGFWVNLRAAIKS
Put plainly: HEK-Blue hTLR2 antagonism assay (SEAP reporter) with Pam2CSK4 as agonist. The format is cell-based. The conditions noted are these: 2 h compound pre-incubation, approx. 3×EC50 Pam2CSK4, 18 h, SEAP OD 655 nm, background subtracted. How it is done:
(§1) Synthetic diacylated lipoprotein (Pam2CSK4, TLR2/6 agonist) and synthetic triacylated lipoprotein (Pam3CSK4, TLR1/2 agonist) were obtained from InvivoGen and were dissolved in endotoxin-free water to a concentration 1 mg/mL, vortexed until complete solubilization, and stored in aliquots at −20° C. Prior to addition to cells, an aliquot of the dissolved ligand was vortexed shortly and then was diluted in medium to 25 ng/mL Pam2CSK4 or 1000 ng/mL Pam3CSK4. The EC50 of the agonists for each assay run was determined by using 3-fold dilutions of each agonist from the following starting concentrations: 5 ng/mL for Pam2CSK4, and 200 ng/mL for Pam3CSK4.
(§2) Test compounds were solubilized fresh to 10-20 mM stocks in DMSO and sonicated for 5-10 minutes in a water bath sonicator. Serial dilutions were prepared in DMSO, and then diluted in medium. The final concentration of DMSO used in the assay was 1%.
(§3) HEK-Blue hTLR2 reporter cells (InvivoGen) are HEK-293 cells stably expressing both the human TLR2 gene and a secreted embryonic alkaline phosphatase (SEAP) reporter construct downstream of NFκB promotor sites. HEK-Blue hTLR2 reporters were cultured according to manufacturer's protocol using Dulbecco's Modified Eagle Medium (DMEM; Gibco) containing 1× GlutaMax (Gibco), 10% heat-inactivated Fetal Bovine Serum (Gibco), Pen-Strep (50 U/mL penicillin, 50 μg/mL streptomycin, Gibco), 100 μg/mL Normocin (InvivoGen), and the selective antibiotic, 1× HEK-Blue Selection (InvivoGen). Quanti-Blue reagent (InvivoGen) for detection and quantification of secreted alkaline phosphatase was dissolved in 100 mL of endotoxin-free water, warmed to 37° C. for 30 minutes and then filtered using a 0.2 μm membrane.
(§4) On day 1, 50 μL of each test compound dilution in duplicates or a vehicle control was added to each well of a 96-well plate followed by addition of 150 μL of HEK-Blue hTLR2 cell suspension (1×10^5 cells/well) and incubated at 37° C./5% CO2 for 2 h. Next, 50 μL of an approximate 3×EC50 concentration of each agonist (Pam2CSK4 or Pam3CSK4) was added to the wells containing test compounds or the vehicle control. The plates were then incubated at 37° C./5% CO2 for 18 h. For each assay run, non-treated HEK-Blue hTLR2 cells were treated with serial dilutions of agonists to determine EC50 values for the respective run.
(§5) On day 2, secreted alkaline phosphatase (SEAP) activity was detected in cell culture supernatants. In brief, 20 μL was collected from each well and transferred to a 96-well plate. Next, 200 μL of Quanti-Blue detection reagent was added to each well. Plates were incubated at room temperature for 15 min and SEAP activity was assessed by spectrophotometer OD reading at 655 nm. […] The activities of the compounds against Pam2CSK4 and Pam3CSK4 are presented as IC50 values for the response from cells treated with agonists with the background signal subtracted.

In experiment [2] the target is T2, human TLR2 (Pam3CSK4, TLR1/2 agonist) in HEK-Blue hTLR2 cells (Homo sapiens, UniProt O60603).
T2 construct: host or cells: HEK-Blue hTLR2 (HEK-293)
T2 sequence (O60603 19-784 limits assumed): as above
Put plainly: HEK-Blue hTLR2 antagonism assay (SEAP reporter) with Pam3CSK4 as agonist. The format is cell-based. The conditions noted are these: 2 h compound pre-incubation, approx. 3×EC50 Pam3CSK4, 18 h, SEAP OD 655 nm, background subtracted. How it is done: as §1, §2, §3, §4, §5

As for `COc1cc(/C=C/c2ccc(OCC3CC3)cc2)cc(C=O)c1O` [compound 65, (E)-5-(4-(cyclopropylmethoxy)styryl)-2-hydroxy-3-methoxybenzaldehyde], the figures for the concentration for half-maximal inhibition (IC50) in experiment [1] and in experiment [2] were 1.7 µM and 0.5 µM, respectively.

`O=Cc1cc(/C=C\c2ccc(N3CCOCC3)cc2)cc(F)c1O` [compound 43, (Z)-3-fluoro-2-hydroxy-5-(4-morpholinostyryl)benzaldehyde]: the IC50 in experiment [1] was found to be 32.8 µM; in experiment [2], 40.7 µM.

Regarding `CC(C)(C)OC(=O)N1CCCc2cc(/C=C/c3cc(F)c(O)c(C=O)c3)ccc21` [compound 61, tert-butyl (E)-6-(3-fluoro-5-formyl-4-hydroxystyryl)-3,4-dihydroquinoline-1(2H)-carboxylate], the IC50 in experiment [1] was 1 µM; in experiment [2], 0.4 µM.

On to `Oc1c(F)cc(/C=C/c2ccc(N3CCCC3)cc2)cc1CNC1CC1` [compound 91, (E)-2-((cyclopropylamino)methyl)-6-fluoro-4-(4-(pyrrolidin-1-yl)styryl)phenol], for which the IC50 in experiment [1] was 30.6 µM; in experiment [2], 82.1 µM.

With `O=Cc1cc(/C=C/c2ccncc2)cc(F)c1O` [compound 30, (E)-3-fluoro-2-hydroxy-5-(2-(pyridin-4-yl)vinyl)benzaldehyde], the IC50 worked out at 20.6 µM in experiment [1] and 18.8 µM in experiment [2].

In the case of `Oc1c(F)cc(/C=C/c2ccc(N3CCCC3)cc2)cc1/C=N/N1CCNCC1` [compound 96], the half-inhibitory concentration (IC50) in experiment [1] was determined as 3.2 µM; in experiment [2] it was 1.3 µM.

Turning to `COc1cc(-c2cc3c(s2)CCN(C(C)=O)C3)cc(C=O)c1O` [compound 15, 5-(5-acetyl-4,5,6,7-tetrahydrothieno[3,2-c]pyridin-2-yl)-2-hydroxy-3-methoxybenzaldehyde], the IC50 in experiment [1] is 14.7 µM; in experiment [2], 12.6 µM.

With `O=Cc1cc(/C=C/c2ccc3ncccc3c2)cc(F)c1O` [compound 59, (E)-3-fluoro-2-hydroxy-5-(2-(quinolin-6-yl)vinyl)benzaldehyde], the IC50 in experiment [1] worked out at 4.1 µM; in experiment [2], 2.6 µM.

Regarding `COc1cc(-c2cc3c(s2)CCN(CCF)C3)cc(C=O)c1O` [compound 16, 5-(5-(2-fluoroethyl)-4,5,6,7-tetrahydrothieno[3,2-c]pyridin-2-yl)-2-hydroxy-3-methoxybenzaldehyde], the concentration for half-maximal inhibition (IC50) in experiment [1] came out at 5.9 µM; in experiment [2] it was 6.9 µM.

As to `CC(=O)N1CCc2sc(-c3cc(F)c(O)c(C=O)c3)cc2C1` [compound 19, 5-(5-acetyl-4,5,6,7-tetrahydrothieno[3,2-c]pyridin-2-yl)-3-fluoro-2-hydroxybenzaldehyde], the figures for the IC50 in experiment [1] and in experiment [2] were 26.7 µM and 38.1 µM, respectively.

For `COc1cc(/C=C/c2ccc(F)cc2)cc(C=O)c1O` [compound 7, (E)-5-(4-fluorostyryl)-2-hydroxy-3-methoxybenzaldehyde], the figures for the IC50 in experiment [1] and in experiment [2] were 7.9 µM and 6.2 µM, respectively.

As for `COc1cc(/C=C/c2ccc(N3CCCC3)cc2)cc(O)c1C=O` [compound 52, (E)-2-hydroxy-6-methoxy-4-(4-(pyrrolidin-1-yl)styryl)benzaldehyde], the IC50 in experiment [1] and in experiment [2] was greater than 100 µM each time.

On to `O=Cc1cc(/C=C\c2ccc(N3CCCC3)cc2)cc(F)c1O` [compound 50, (Z)-3-fluoro-2-hydroxy-5-(4-(pyrrolidin-1-yl)styryl)benzaldehyde], for which the values for the IC50 in experiment [1] and in experiment [2] were 10 µM and 6.7 µM, respectively.

With `Cc1ccc(/C=C/c2ccc(O)c(C=O)c2)cn1` [compound 21, (E)-2-hydroxy-5-(2-(6-methylpyridin-3-yl)vinyl)benzaldehyde], the half-inhibitory concentration (IC50) in experiment [1] was 40 µM; in experiment [2], 57.3 µM.

As for `COc1cc(-c2cc3c(s2)CCNC3)cc(C=O)c1O` [compound 13, 2-hydroxy-3-methoxy-5-(4,5,6,7-tetrahydrothieno[3,2-c]pyridin-2-yl)benzaldehyde hydrochloride], the values for the IC50 in experiment [1] and in experiment [2] were 4.5 µM and 3.8 µM, respectively.

Turning to `O=Cc1c(O)cc(/C=C/c2ccc(N3CCCCC3)cc2)cc1F` [compound 71, (E)-2-fluoro-6-hydroxy-4-(4-(piperidin-1-yl)styryl)benzaldehyde], the concentration for half-maximal inhibition (IC50) in experiment [1] worked out at 13.7 µM; in experiment [2], 2.5 µM.

Regarding `COc1cc(/C=C/c2ccc(N3CCCCC3)cc2)cc(C=O)c1O` [compound 69, (E)-2-hydroxy-3-methoxy-5-(4-(piperidin-1-yl)styryl)benzaldehyde], the IC50 came out at 0.7 µM in experiment [1] and 0.6 µM in experiment [2].

As for `COc1cc(/C=C/C2CCN(C(=O)OC(C)(C)C)CC2)cc(C=O)c1O` [compound 27, tert-butyl (E)-4-(3-formyl-4-hydroxy-5-methoxystyryl)piperidine-1-carboxylate], the concentration for half-maximal inhibition (IC50) is 4.4 µM in experiment [1] and 7.7 µM in experiment [2].

Turning to `Oc1c(F)cc(/C=C/c2ccc(N3CCCC3)cc2)cc1C1OCCCO1` [compound 75, (E)-2-(1,3-dioxan-2-yl)-6-fluoro-4-(4-(pyrrolidin-1-yl)styryl)phenol], the figures for the IC50 in experiment [1] and in experiment [2] were 1.2 µM and 1.3 µM, respectively.

As to `CC(C)(C)OC(=O)N1CCC(/C=C/c2cc(F)c(O)c(C=O)c2)CC1` [compound 31, tert-butyl (E)-4-(3-fluoro-5-formyl-4-hydroxystyryl)piperidine-1-carboxylate], the IC50 in experiment [1] turned out to be 3.8 µM; in experiment [2], 6 µM.

Regarding `O=Cc1cc(/C=C/c2cccc(N3CCCC3)c2)cc(F)c1O` [compound 47, (E)-3-fluoro-2-hydroxy-5-(3-(pyrrolidin-1-yl)styryl)benzaldehyde], the values for the concentration for half-maximal inhibition (IC50) in experiment [1] and in experiment [2] were 1.3 µM and 0.9 µM, respectively.

`CC(C)(C)OC(=O)N1CCN(/N=C/c2cc(/C=C/c3ccc(N4CCCC4)cc3)cc(F)c2O)CC1` [compound 95, tert-butyl 4-(((E)-3-fluoro-2-hydroxy-5-((E)-4-(pyrrolidin-1-yl)styryl)benzylidene)amino)piperazine-1-carboxylate]: the half-maximal inhibitory concentration (IC50) in experiment [1] is 4.4 µM; in experiment [2], 3.6 µM.

For the molecule `O=Cc1cc(/C=C/c2ccc3c(c2)CCCO3)cc(F)c1O` [compound 68, (E)-5-(2-(chroman-6-yl)vinyl)-3-fluoro-2-hydroxybenzaldehyde], the 50% inhibitory concentration (IC50) in experiment [1] was determined as 1.6 µM; in experiment [2] it was 1.3 µM.

`COc1cc(/C=C/c2ccc3ncccc3c2)cc(C=O)c1O` [compound 58, (E)-2-hydroxy-3-methoxy-5-(2-(quinolin-6-yl)vinyl)benzaldehyde]: the IC50 stood at 4.9 µM in experiment [1] and 5 µM in experiment [2].

In the case of `COc1ccc(/C=C/c2cc(OC)c(O)c(C(C)=O)c2)cc1` [compound 9, (E)-1-(2-hydroxy-3-methoxy-5-(4-methoxystyryl)phenyl)ethan-1-one], the concentration for half-maximal inhibition (IC50) in experiment [1] and in experiment [2] was greater than 100 µM throughout.

Regarding `N=C(N)N/N=C/c1cc(/C=C/c2ccc(N3CCCC3)cc2)cc(F)c1O` [compound 83, 2-((E)-3-fluoro-2-hydroxy-5-((E)-4-(pyrrolidin-1-yl)styryl)benzylidene)hydrazine-1-carboximidamide], the results for the half-maximal inhibitory concentration (IC50) in experiment [1] and in experiment [2] were 36.7 µM and 88.9 µM, respectively.

With `COc1cc(-c2cc3c(s2)CCN(C(=O)C2CC2)C3)cc(C(=O)/C=C/c2ccccc2)c1O` [compound 74, (E)-1-(5-(5-(cyclopropanecarbonyl)-4,5,6,7-tetrahydrothieno[3,2-c]pyridin-2-yl)-2-hydroxy-3-methoxyphenyl)-3-phenylprop-2-en-1-one], the IC50 turned out to be 6.3 µM in experiment [1] and 7 µM in experiment [2].

In the case of `CN1CCN(/N=C/c2cc(/C=C/c3ccc(N4CCCC4)cc3)cc(F)c2O)CC1` [compound 76, 2-fluoro-6-((E)-((4-methylpiperazin-1-yl)imino)methyl)-4-((E)-4-(pyrrolidin-1-yl)styryl)phenol], the IC50 turned out to be 0.4 µM in experiment [1] and 0.5 µM in experiment [2].
